ChEMBL document CHEMBL5055660, “In vitro activity of N-phenyl-1,10-phenanthroline-2-amines against tachyzoites and bradyzoites of Toxoplasma gondii” (Bioorg Med Chem, 2021)
Activity calls are given as the source filed them. No cut-off for these calls is given here.

How the values were obtained:
Toxoplasma gondii [1] = test: (§1) Anti-tachyzoite activity against RFP-expressing Toxoplasma gondii RH Type 1 infected in NHDF cells assessed as inhibition of plaque formation at 0.625 uM incubated for 96 hrs followed by removal of medium containing compounds and subsequent addition of fresh medium without compounds and measured after 8 days by crystal violet staining based optical microscopic analysis; format: functional, organism-based
Toxoplasma gondii [2] = test: Anti-bradyzoite activity against Toxoplasma gondii ESG reporter strain infected in NHDF cells assessed as morphological alteration at 1.25 uM measured after 5 days under alkaline condition by TEM analysis; format: functional, organism-based; conditions: time 5.0 day
Toxoplasma gondii [3] = test: as §1, with “1.25” for “0.625”; format: functional, organism-based
Toxoplasma gondii [4] = test: Anti-bradyzoite activity against Toxoplasma gondii ESG reporter stain infected in NHDF cells assessed as parasitic infection at 1.25 uM measured after 60 days by optical microscopic analysis; format: functional, organism-based; conditions: time 60.0 day
Toxoplasma gondii [5] = test: Anti-tachyzoite activity against RFP-expressing Toxoplasma gondii RH Type 1 infected in NHDF cells assessed as inhibition of parasite proliferation measured after 72 hrs by fluorescence plate reader; format: functional; conditions: RH Type 1, NHDF, read-out: ED50 (the source's name)
[6] = Cytotoxicity against NHDF cells assessed as reduction in cell viability measured after 96 hrs by MTS assay; format: cell-based; conditions: human
Toxoplasma gondii [7] = test: Anti-bradyzoite activity against Toxoplasma gondii ESG reporter strain infected in NHDF cells assessed as induction of cyst formation measured after 5 days under alkaline condition by TEM analysis; format: functional, organism-based; conditions: time 5.0 day
Toxoplasma gondii [8] = test: Induction of vacuole formation in Toxoplasma gondii ESG reporter strain infected in NHDF cells assessed as increase in BAG positive vacuole number pretreated with PYR for 3 days followed by compound treatment and further incubated for 4 days; format: functional, organism-based; conditions: time 4.0 day
Toxoplasma gondii [9] = test: Anti-bradyzoite activity against Toxoplasma gondii ESG reporter strain infected in NHDF cells assessed as increase in BAG-positive vacuole number at 1.25 uM pretreated with PYR for 3 days followed by compound treatment and further incubated for 4 days; format: functional, organism-based; conditions: time 4.0 day
Toxoplasma gondii [10] = test: Anti-tachyzoite activity against RFP-expressing Toxoplasma gondii RH Type 1 infected in NHDF cells assessed as inhibition of parasite proliferation measured after 96 hrs by fluorescence plate reader; format: functional; conditions: RH Type 1, NHDF, read-out: ED50 (the source's name)
Toxoplasma gondii [11] = test: (§2) Anti-tachyzoite activity against RFP-expressing Toxoplasma gondii RH Type 1 infected in NHDF cells assessed as inhibition of plaque formation at 1.25 uM when host cells pretreated for 3 days followed by infection and removal of medium containing compounds and subsequent addition of fresh medium without compounds and measured after 7 days by crystal violet staining based optical microscopic analysis; format: functional, organism-based; conditions: time 3.0 day
[12] = Selectivity index, ratio of CC50 for cytotoxicity against NHDF cells to ED50 for Anti-tachyzoite activity against RFP-expressing Toxoplasma gondii RH Type 1 infected in NHDF cells; format: toxicity, cell-based; conditions: human; read-out: Selectivity Index
Toxoplasma gondii [13] = test: Anti-bradyzoite activity against Toxoplasma gondii ESG reporter strain infected in NHDF cells assessed as cell lysis measured after 21 days; format: functional, organism-based; conditions: time 21.0 day
Toxoplasma gondii [14] = test: as §1, with “destruction” for “inhibition”, “host cells” for “plaque formation”, “5” for “0.625”; format: functional, organism-based
Toxoplasma gondii [15] = test: as §1, with “destruction” for “inhibition”, “host cells” for “plaque formation”, “1.25” for “0.625”; format: functional, organism-based
Toxoplasma gondii [16] = test: as §1, with “destruction” for “inhibition”, “host cells” for “plaque formation”, “2.5” for “0.625”; format: functional, organism-based
Toxoplasma gondii [17] = test: as §1, with “as” for “as inhibition of”, “2” for “0.625”; format: functional, organism-based
Toxoplasma gondii [18] = test: Induction of stage conversion in Toxoplasma gondii ESG reporter strain at 2 uM; format: functional, organism-based
Toxoplasma gondii [19] = test: as §1, with “as” for “as inhibition of”, “4” for “0.625”; format: functional, organism-based
Toxoplasma gondii [20] = test: as §1, with “destruction” for “inhibition”, “host cells” for “plaque formation”, “1” for “0.625”; format: functional, organism-based
Toxoplasma gondii [21] = test: Anti-bradyzoite activity against Toxoplasma gondii ESG reporter strain infected in NHDF cells assessed as increase in BAG-positive vacuole number at 2 uM pretreated with PYR for 3 days followed by compound treatment and further incubated for 4 days; format: functional, organism-based; conditions: time 4.0 day
Toxoplasma gondii [22] = test: Anti-bradyzoite activity against Toxoplasma gondii ESG reporter strain infected in NHDF cells assessed as cell lysis at 2 uM measured after 21 days; format: functional, organism-based; conditions: time 21.0 day
Toxoplasma gondii [23] = test: Induction of stage conversion in Toxoplasma gondii ESG reporter strain at 4 uM; format: functional, organism-based
Toxoplasma gondii [24] = test: Anti-bradyzoite activity against Toxoplasma gondii ESG reporter stain infected in NHDF cells assessed as parasite proliferation at 4 uM measured after 30 days by optical microscopic analysis; format: functional, organism-based; conditions: time 30.0 day
Toxoplasma gondii [25] = test: Anti-bradyzoite activity against Toxoplasma gondii ESG reporter stain infected in NHDF cells assessed as viable cells recovery causing host cell lysis at 2 uM measured after 15 days by optical microscopic analysis; format: functional, organism-based; conditions: time 15.0 day
Toxoplasma gondii [26] = test: Induction of stage conversion in Toxoplasma gondii ESG reporter strain at 1 uM; format: functional, organism-based
Toxoplasma gondii [27] = test: Anti-bradyzoite activity against Toxoplasma gondii ESG reporter strain infected in NHDF cells assessed as induced cyst formation at 2 uM measured after 5 days under alkaline condition by TEM analysis; format: functional, organism-based; conditions: time 5.0 day
Toxoplasma gondii [28] = test: Anti-bradyzoite activity against Toxoplasma gondii ESG reporter stain infected in NHDF cells assessed as viable cells recovery causing host cell lysis at 0.625 uM measured after 15 days by optical microscopic analysis; format: functional, organism-based; conditions: time 15.0 day
Toxoplasma gondii [29] = test: as §1, with “as” for “as inhibition of”; format: functional, organism-based
Toxoplasma gondii [30] = test: Anti-bradyzoite activity against Toxoplasma gondii ESG reporter stain infected in NHDF cells assessed as viable cells recovery causing host cell lysis at 1 uM measured after 15 days by optical microscopic analysis; format: functional, organism-based; conditions: time 15.0 day
Toxoplasma gondii [31] = test: Induction of morphological changes in Toxoplasma gondii ESG reporter strain at 10 uM; format: functional, organism-based
Toxoplasma gondii [32] = test: Anti-bradyzoite activity against Toxoplasma gondii ESG reporter stain infected in NHDF cells assessed as parasite proliferation at 10 uM measured after 30 days by optical microscopic analysis; format: functional, organism-based; conditions: time 30.0 day
Toxoplasma gondii [33] = test: as §1, with “10” for “0.625”; format: functional, organism-based
Toxoplasma gondii [34] = test: Anti-bradyzoite activity against Toxoplasma gondii ESG reporter stain infected in NHDF cells assessed as parasite proliferation at 0.325 uM measured after 30 days by optical microscopic analysis; format: functional, organism-based; conditions: time 30.0 day
Toxoplasma gondii [35] = test: Anti-bradyzoite activity against Toxoplasma gondii ESG reporter stain infected in NHDF cells assessed as parasitic infection at 0.625 uM measured after 60 days by optical microscopic analysis; format: functional, organism-based; conditions: time 60.0 day
Toxoplasma gondii [36] = test: Anti-bradyzoite activity against Toxoplasma gondii ESG reporter strain infected in NHDF cells assessed as increase in BAG-positive vacuole number at 0.625 uM pretreated with PYR for 3 days followed by compound treatment and further incubated for 4 days; format: functional, organism-based; conditions: time 4.0 day
Toxoplasma gondii [37] = test: as §2, with “0.312” for “1.25”; format: functional, organism-based; conditions: time 3.0 day
Toxoplasma gondii [38] = test: Induction of cell death in RFP-expressing Toxoplasma gondii RH Type 1 assessed as DNA fragmentation at 156 nM after 72 hrs by immunoblotting analysis; format: functional, organism-based
Toxoplasma gondii [39] = test: Induction of mitochondria swelling in RFP-expressing Toxoplasma gondii RH Type 1 at 156 nM after 72 hrs by TEM analysis; format: functional, organism-based; conditions: NHDF
Toxoplasma gondii [40] = test: Anti-bradyzoite activity against Toxoplasma gondii ESG reporter strain infected in NHDF cells assessed as morphological alteration at 0.625 uM measured after 5 days under alkaline condition by TEM analysis; format: functional, organism-based; conditions: time 5.0 day
Toxoplasma gondii [41] = test: as §1, with “0.312” for “0.625”; format: functional, organism-based
Toxoplasma gondii [42] = test: as §1, with “as” for “as inhibition of”, “0.156” for “0.625”; format: functional, organism-based
Toxoplasma gondii [43] = test: Induction of cytoplasmic vacuolization in RFP-expressing Toxoplasma gondii RH Type 1 at 156 nM after 72 hrs by TEM analysis; format: functional, organism-based
Toxoplasma gondii [44] = test: Induction of nuclear fragmentation in RFP-expressing Toxoplasma gondii RH Type 1 at 156 nM after 72 hrs by TEM analysis; format: functional, organism-based; conditions: NHDF
Toxoplasma gondii [45] = test: as §1, with “viable cells recovery causing host cell lysis” for “inhibition of plaque formation”, “5” for “0.625”, “analysis relative to control” for “analysis”; format: functional

SMILES	Activity (Toxoplasma gondii [3])	Activity (Toxoplasma gondii [4])	EC50 (Toxoplasma gondii [5]) [nM]	CC50 at 96 h [6] [nM]	Activity (Toxoplasma gondii [8])	Activity (Toxoplasma gondii [9])	EC50 (Toxoplasma gondii [10]) [nM]	selectivity ratio [12]	further results
Fc1cccc(Nc2ccc3ccc4cccnc4c3n2)c1	Active	inactive	270	24900	Active	Active	330	75	Activity (Toxoplasma gondii [1]): Active; Activity (Toxoplasma gondii [2]): Active; Activity (Toxoplasma gondii [7]): Active; Activity (Toxoplasma gondii [11]): Active
N#Cc1cccc(Nc2ccc3ccc4cccnc4c3n2)c1	–	–	240	30500	Active	–	310	98	Activity (Toxoplasma gondii [13]): Active; Activity (Toxoplasma gondii [14]): Active; Activity (Toxoplasma gondii [15]): Active; Activity (Toxoplasma gondii [16]): Active
CCc1nc(N)nc(N)c1-c1ccc(Cl)cc1	–	–	–	–	–	–	–	–	Activity (Toxoplasma gondii [17]): Active; Activity (Toxoplasma gondii [18]): Active; Activity (Toxoplasma gondii [19]): Active; Activity (Toxoplasma gondii [20]): Active; Activity (Toxoplasma gondii [21]): Active; Activity (Toxoplasma gondii [22]): Active; Activity (Toxoplasma gondii [23]): Active; Activity (Toxoplasma gondii [24]): Active; Activity (Toxoplasma gondii [25]): Active; Activity (Toxoplasma gondii [26]): Active; Activity (Toxoplasma gondii [27]): Active
COc1ccc(Nc2ccc3ccc4cccnc4c3n2)cc1	Active	inactive	310	18400	–	Active	290	63	Activity (Toxoplasma gondii [28]): Active; Activity (Toxoplasma gondii [29]): Active
O=C1C(O)=C([C@H]2CC[C@H](c3ccc(Cl)cc3)CC2)C(=O)c2ccccc21	–	–	–	–	–	–	–	–	Activity (Toxoplasma gondii [13]): Active; Activity (Toxoplasma gondii [20]): Active; Activity (Toxoplasma gondii [30]): Active; Activity (Toxoplasma gondii [31]): Active; Activity (Toxoplasma gondii [32]): Active; Activity (Toxoplasma gondii [33]): Active; Activity (Toxoplasma gondii [26]): Active
COc1cccc(Nc2ccc3ccc4cccnc4c3n2)c1	Active	inactive	250	37700	–	Active	340	111	Activity (Toxoplasma gondii [29]): Active; Activity (Toxoplasma gondii [11]): Active
c1ccc2c(Nc3ccc4ccc5cccnc5c4n3)cccc2c1	–	–	240	11400	Active	–	150	114	Activity (Toxoplasma gondii [34]): Active; Activity (Toxoplasma gondii [35]): inactive; Activity (Toxoplasma gondii [36]): Active; Activity (Toxoplasma gondii [37]): Active; Activity (Toxoplasma gondii [38]): Active; Activity (Toxoplasma gondii [39]): Active; Activity (Toxoplasma gondii [40]): Active; Activity (Toxoplasma gondii [41]): Active; Activity (Toxoplasma gondii [7]): Active; Activity (Toxoplasma gondii [42]): Active; Activity (Toxoplasma gondii [43]): Active; Activity (Toxoplasma gondii [44]): Active
c1cnc2c(c1)ccc1cccnc12 [PHENANTHROLINE]	–	–	2010	70200	–	–	2280	31	Activity (Toxoplasma gondii [22]): Active
Clc1cccc(Nc2ccc3ccc4cccnc4c3n2)c1	Active	inactive	360	24900	Active	Active	580	42	Activity (Toxoplasma gondii [1]): Active; Activity (Toxoplasma gondii [2]): Active; Activity (Toxoplasma gondii [28]): Active; Activity (Toxoplasma gondii [7]): Active; Activity (Toxoplasma gondii [11]): Active
c1ccc(Nc2ccc3ccc4cccnc4c3n2)cc1	Active	–	530	34600	–	–	670	73	–
N#Cc1ccc(Nc2ccc3ccc4cccnc4c3n2)cc1	–	–	1060	31000	–	–	1660	21	Activity (Toxoplasma gondii [13]): Active; Activity (Toxoplasma gondii [45]): 100%
Fc1ccc(Nc2ccc3ccc4cccnc4c3n2)cc1	–	inactive	250	26900	–	Active	310	96	Activity (Toxoplasma gondii [15]): Active; Activity (Toxoplasma gondii [29]): Active
